How the values were obtained:
[1] = tested on: NCI-H611 (non-small cell lung cancer); experiment: cells; assay type: cell-based; conditions: Homo sapiens, read-out: IC50 (μM), NCI-H611
[2] = tested on: 8226S (myeloma RPMI 8226); experiment: cells; assay type: cell-based, human; conditions: Homo sapiens, RPMI-8226, 72 h, read-out: IC50 (μM), 8226S
[3] = tested on: U-1752 (non-small cell lung cancer); experiment: cells; assay type: cell-based; conditions: Homo sapiens, read-out: IC50 (μM), U-1752
[4] = tested on: panel of ten human tumour cell lines; assay type: cell-based
[5] = tested on: U-1568 (non-small cell lung cancer); experiment: cells; assay type: cell-based; conditions: Homo sapiens, read-out: IC50 (μM), U-1568
[6] = tested on: U-1906E (small cell lung cancer); experiment: cells; assay type: cell-based; conditions: Homo sapiens, read-out: IC50 (μM), U-1906E
[7] = tested on: U1690 (small cell lung cancer); experiment: cells; assay type: cell-based; conditions: Homo sapiens, read-out: IC50 (μM), U1690
[8] = tested on: U1285 (small cell lung cancer); experiment: cells; assay type: cell-based; conditions: Homo sapiens, read-out: IC50 (μM), U1285
[9] = tested on: CEM/S (leukemia CCRF-CEM); experiment: cells; assay type: cell-based; conditions: Homo sapiens, 72 h, read-out: IC50 (μM), CEM/S
[10] = tested on: NCI-H125 (non-small cell lung cancer); experiment: cells; assay type: cell-based; conditions: Homo sapiens, NCI-H125, read-out: IC50 (μM), NCI-H125
[11] = tested on: U1906L (small cell lung cancer); experiment: cells; assay type: cell-based; conditions: Homo sapiens, read-out: IC50 (μM), U1906L

CC[C@@]1(O)C(=O)OCc2c1cc1n(c2=O)Cc2cc3c(CN(C)C)c(O)ccc3nc2-1 [Topotecan, topotecan]
IC50 [1]: ≥ 236 µM | IC50 [2]: 0.87 µM | IC50 [3]: 28 µM | IC50 (μM), MEAN [4]: 20.0 µM | IC50 [5]: 115 µM | IC50 [6]: 0.08 µM | IC50 [7]: 0.92 µM | IC50 [8]: 0.17 µM | IC50 [9]: 0.02 µM | IC50 [10]: ≥ 236 µM | IC50 [11]: 0.12 µM
